# In ChEMBL document CHEMBL1671743, “Affinity of ceftobiprole for penicillin-binding protein 2b in Streptococcus pneumoniae strains with various susceptibilities to penicillin” (Antimicrob Agents Chemother, 2010):
# Experiments:
# [1] = system: Streptococcus pneumoniae; assay: Antimicrobial activity against penicillin intermediate resistant Streptococcus pneumoniae isolate 8882 harboring PBP2b 443SSNA mutant by broth microdilution method; format: functional
# [2] = biological target: Penicillin-binding protein 2B (Streptococcus pneumoniae (strain ATCC BAA-255 / R6), UniProt P0A3M6, A619G/T446A); assay: Inhibition of Bocillin FL binding to PBP2b Thr446Ala/Ala-619-Gly mutant in laboratory-derived Streptococcus pneumoniae isolate R6
# [3] = biological target: T1, Penicillin-binding protein 2B (Streptococcus pneumoniae (strain ATCC BAA-255 / R6), UniProt P0A3M6, T446A); assay: Inhibition of Bocillin FL binding to PBP2b Thr446Ala mutant in laboratory-derived Streptococcus pneumoniae isolate R6
# [4] = system: Streptococcus pneumoniae; assay: Antimicrobial activity against laboratory-derived Streptococcus pneumoniae isolate R6 harboring Thr446Ala mutant gene by broth microdilution method; format: functional
# [5] = biological target: T1, Penicillin-binding protein 2B; assay: Inhibition of Bocillin FL binding to PBP2b PBP2b 443SSNA mutant in Streptococcus pneumoniae isolate 8009 harboring E333G, N470K, E476G, T489S, E506D, and N538D mutant genes
# [6] = biological target: T2, Penicillin-binding protein 2B (Streptococcus pneumoniae serotype 4 (strain ATCC BAA-334 / TIGR4), UniProt P0A3M5); assay: Inhibition of Bocillin FL binding to Streptococcus pneumoniae isolate 8865 PBP2b
# T2 sequence (P0A3M5 whole entry): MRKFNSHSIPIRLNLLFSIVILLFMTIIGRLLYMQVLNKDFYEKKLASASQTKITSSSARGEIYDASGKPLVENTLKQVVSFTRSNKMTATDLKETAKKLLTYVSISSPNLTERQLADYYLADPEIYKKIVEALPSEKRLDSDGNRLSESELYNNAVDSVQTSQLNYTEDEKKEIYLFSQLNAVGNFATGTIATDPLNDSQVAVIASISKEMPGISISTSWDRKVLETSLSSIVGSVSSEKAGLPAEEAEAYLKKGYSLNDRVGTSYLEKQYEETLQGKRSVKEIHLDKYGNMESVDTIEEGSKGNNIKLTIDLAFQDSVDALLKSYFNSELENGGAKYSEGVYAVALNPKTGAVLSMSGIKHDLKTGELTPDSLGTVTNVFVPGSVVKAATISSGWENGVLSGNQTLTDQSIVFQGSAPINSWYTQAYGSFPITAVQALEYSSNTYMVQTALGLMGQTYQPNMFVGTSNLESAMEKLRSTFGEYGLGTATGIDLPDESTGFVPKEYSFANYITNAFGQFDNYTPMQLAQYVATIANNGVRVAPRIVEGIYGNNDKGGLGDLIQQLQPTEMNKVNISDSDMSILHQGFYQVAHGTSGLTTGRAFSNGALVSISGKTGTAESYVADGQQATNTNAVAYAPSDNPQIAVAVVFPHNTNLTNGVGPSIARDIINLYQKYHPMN
# [7] = biological target: T1, Penicillin-binding protein 2B; assay: Inhibition of Streptococcus pneumoniae isolate 8882 Bocillin FL binding to PBP2b 443SSNA mutant
# [8] = system: Streptococcus pneumoniae; assay: Antimicrobial activity against penicillin sensitive Streptococcus pneumoniae isolate 8865 by broth microdilution method; format: functional
# [9] = system: Streptococcus pneumoniae; assay: Antimicrobial activity against penicillin intermediate resistant Streptococcus pneumoniae isolate 8009 harboring PBP2b 443SSNA mutant by broth microdilution method; format: functional
# [10] = system: Streptococcus pneumoniae; assay: Antimicrobial activity against laboratory-derived Streptococcus pneumoniae isolate R6 by broth microdilution method; format: functional
# [11] = system: Streptococcus pneumoniae; assay: Antimicrobial activity against penicillin resistant Streptococcus pneumoniae isolate 8819 harboring PBP2b 443SSNA mutant by broth microdilution method; format: functional
# [12] = system: Streptococcus pneumoniae; assay: Antimicrobial activity against laboratory-derived Streptococcus pneumoniae isolate R6 harboring Thr446Ala/Ala-619-Gly mutant gene by broth microdilution method; format: functional
# [13] = biological target: T2, Penicillin-binding protein 2B; assay: Inhibition of Bocillin FL binding to PBP2b in laboratory-derived Streptococcus pneumoniae isolate R6
# [14] = biological target: Penicillin-binding protein 2B (Streptococcus pneumoniae (strain ATCC BAA-255 / R6), UniProt P0A3M6, A619G); assay: Inhibition of Bocillin FL binding to PBP2b in Streptococcus pneumoniae isolate 8819 harboring E333G, I361L, E369D, S412P, N422Y, T426K, Q427L, Q438E, L455I, S473T, E476G, S480A, T489A, N538D, D561E, Q564K, and D625G mutant genes
# Chain of Penicillin-binding protein 2B (Streptococcus pneumoniae (strain ATCC BAA-255 / R6), UniProt P0A3M6, A619G) (P0A3M6 whole entry A619G): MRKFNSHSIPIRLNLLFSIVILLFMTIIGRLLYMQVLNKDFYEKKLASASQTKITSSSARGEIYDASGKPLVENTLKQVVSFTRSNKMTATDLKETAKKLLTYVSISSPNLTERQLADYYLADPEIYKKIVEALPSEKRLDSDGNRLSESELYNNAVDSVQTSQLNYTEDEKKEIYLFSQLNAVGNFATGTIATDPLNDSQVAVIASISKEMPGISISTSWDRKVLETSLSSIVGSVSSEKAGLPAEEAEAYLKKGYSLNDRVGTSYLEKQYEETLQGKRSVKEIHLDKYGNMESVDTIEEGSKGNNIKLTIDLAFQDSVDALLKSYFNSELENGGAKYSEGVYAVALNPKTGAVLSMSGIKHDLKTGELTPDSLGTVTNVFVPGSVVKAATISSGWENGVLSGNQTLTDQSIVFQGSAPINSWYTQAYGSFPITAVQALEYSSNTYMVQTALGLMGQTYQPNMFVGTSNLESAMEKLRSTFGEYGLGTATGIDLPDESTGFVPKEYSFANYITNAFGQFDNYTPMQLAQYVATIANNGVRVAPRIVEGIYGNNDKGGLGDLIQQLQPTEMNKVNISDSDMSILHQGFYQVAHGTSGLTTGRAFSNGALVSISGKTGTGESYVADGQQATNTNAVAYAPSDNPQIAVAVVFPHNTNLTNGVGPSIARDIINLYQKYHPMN
# T1 sequence (P0A3M6 whole entry T446A): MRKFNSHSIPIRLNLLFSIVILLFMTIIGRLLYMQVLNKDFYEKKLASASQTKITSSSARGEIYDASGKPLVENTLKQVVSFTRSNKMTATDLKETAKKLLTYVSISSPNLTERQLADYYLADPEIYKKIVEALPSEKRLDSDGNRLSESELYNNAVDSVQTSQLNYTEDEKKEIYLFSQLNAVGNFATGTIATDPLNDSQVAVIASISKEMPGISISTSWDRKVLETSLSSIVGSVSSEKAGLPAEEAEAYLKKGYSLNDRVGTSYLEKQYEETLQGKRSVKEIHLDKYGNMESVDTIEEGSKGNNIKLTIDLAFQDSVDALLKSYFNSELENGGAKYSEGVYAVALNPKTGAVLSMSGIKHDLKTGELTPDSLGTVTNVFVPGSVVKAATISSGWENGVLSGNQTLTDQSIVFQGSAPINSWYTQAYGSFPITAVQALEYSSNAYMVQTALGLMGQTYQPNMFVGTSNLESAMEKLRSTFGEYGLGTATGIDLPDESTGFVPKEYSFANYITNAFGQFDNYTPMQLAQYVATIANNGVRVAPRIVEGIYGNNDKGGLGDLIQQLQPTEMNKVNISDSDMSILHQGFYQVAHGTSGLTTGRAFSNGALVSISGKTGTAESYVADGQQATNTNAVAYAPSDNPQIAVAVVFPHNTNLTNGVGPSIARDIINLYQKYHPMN
# Chain of Penicillin-binding protein 2B (Streptococcus pneumoniae (strain ATCC BAA-255 / R6), UniProt P0A3M6, A619G/T446A) (P0A3M6 whole entry T446A/A619G): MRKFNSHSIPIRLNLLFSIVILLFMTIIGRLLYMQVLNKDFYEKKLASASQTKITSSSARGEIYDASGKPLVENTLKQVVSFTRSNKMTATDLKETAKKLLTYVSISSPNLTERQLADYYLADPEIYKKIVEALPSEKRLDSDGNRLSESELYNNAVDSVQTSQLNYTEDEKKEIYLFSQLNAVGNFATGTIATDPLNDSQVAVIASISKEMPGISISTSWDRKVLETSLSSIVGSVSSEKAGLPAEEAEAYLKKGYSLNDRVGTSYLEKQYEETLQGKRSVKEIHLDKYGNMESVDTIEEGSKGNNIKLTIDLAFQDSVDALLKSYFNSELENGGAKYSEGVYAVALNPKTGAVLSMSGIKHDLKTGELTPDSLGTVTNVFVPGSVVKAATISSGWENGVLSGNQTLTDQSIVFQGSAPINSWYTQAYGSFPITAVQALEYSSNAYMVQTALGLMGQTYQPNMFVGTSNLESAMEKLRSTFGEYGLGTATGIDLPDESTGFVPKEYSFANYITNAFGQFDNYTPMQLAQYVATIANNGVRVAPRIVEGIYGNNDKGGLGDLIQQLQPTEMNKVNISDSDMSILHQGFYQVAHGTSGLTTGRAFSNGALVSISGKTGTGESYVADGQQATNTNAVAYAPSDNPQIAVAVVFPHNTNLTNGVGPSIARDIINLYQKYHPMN
Compound,MIC [1],IC50 [2],IC50 [3],MIC [4],IC50 [5],IC50 [6],IC50 [7],MIC [8],MIC [9],MIC [10],MIC [11],MIC [12],IC50 [13],IC50 [14]
Nc1nc(/C(=N/O)C(=O)N[C@@H]2C(=O)N3C(C(=O)O)=C(/C=C4\CCN([C@@H]5CCNC5)C4=O)CS[C@H]23)ns1 [CEFTOBIPROLE],0.008 µg/mL,3.18 µM,1.31 µM,0.002 µg/mL,1.68 µM,0.112 µM,2.24 µM,0.008 µg/mL,0.015 µg/mL,0.002 µg/mL,1 µg/mL,0.004 µg/mL,0.112 µM,> 15 µM
CC1(C)S[C@@H]2[C@H](NC(=O)Cc3ccccc3)C(=O)N2[C@H]1C(=O)O [PENICILLIN G],0.12 µg/mL,5.38 µM,2.39 µM,0.015 µg/mL,7.48 µM,0.0239 µM,7.48 µM,≤ 0.015 µg/mL,0.12 µg/mL,0.015 µg/mL,8 µg/mL,0.03 µg/mL,0.449 µM,> 23.9 µM
CO/N=C(\C(=O)N[C@@H]1C(=O)N2C(C(=O)O)=C(CSc3nc(=O)c(O)nn3C)CS[C@H]12)c1csc(N)n1 [CEFTRIAXONE],0.06 µg/mL,–,–,0.008 µg/mL,> 14.4 µM,> 14.4 µM,> 14.4 µM,0.03 µg/mL,0.06 µg/mL,0.008 µg/mL,8 µg/mL,0.015 µg/mL,> 14.4 µM,> 14.4 µM
